Measured values: the supplement of paper PMC10307832

Columns and labels:
Experiment in all cases: relative viability (nuclei count vs DMSO), 5 days (fraction); higher = more cells survive
Pifithrin_alpha = compound: CC1=CC=C(C=C1)C(=O)CN2C3=C(CCCC3)SC2=N [Pifithrin_alpha]
In short: (§1)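 Five library-drug doses, separated by factors of √10, were pinned into 1536-well plates holding lung cancer cell lines after an overnight stay at 37 °C. Cells were fixed, permeabilised and Hoechst-stained in one step after 5 days without medium change, then imaged at 4×. Viability compares treated-well with vehicle-well nuclei, counted in MetaXpress, as a median across plates. Passing plates had control CV below 25% and at least one doubling.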

Axitinib = compound: CNC(=O)c1ccccc1Sc1ccc2c(/C=C/c3ccccn3)n[nH]c2c1 [Axitinib]
In short: as §1

Bemcentinib = compound: Nc1nc(Nc2ccc3c(c2)CC[C@@H](N2CCCC2)CC3)nn1-c1cc2c(nn1)-c1ccccc1CCC2 [Bemcentinib]
In short: as §1

Axitinib + Crizotinib = compound: CNC(=O)c1ccccc1Sc1ccc2c(/C=C/c3ccccn3)n[nH]c2c1 [Axitinib] + C[C@@H](Oc1cc(-c2cnn(C3CCNCC3)c2)cnc1N)c1c(Cl)ccc(F)c1Cl [Crizotinib] (partner 1 µM)
In short: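 Lung cancer cell lines in 1536-well plates got either a single drug or a fixed anchor-drug dose together with five library-drug doses (not always all listed) in √10 steps, by pin tool, on the day after seeding. Nuclei were counted after 5 days, and relative viability is the treated-to-vehicle ratio of nuclei counts. Values are medians of duplicate plates.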

Row | Cell Line | relative viability (Pifithrin_alpha; 1 µM) | relative viability (Pifithrin_alpha; 3.162 µM) | relative viability (Pifithrin_alpha; 10 µM) | relative viability (Pifithrin_alpha; 31.62 µM) | relative viability (Pifithrin_alpha; 100 µM) | relative viability (Axitinib; 0.005 µM) | relative viability (Axitinib; 0.01581 µM) | relative viability (Axitinib; 0.05 µM) | relative viability (Axitinib; 0.1581 µM) | relative viability (Axitinib; 0.5 µM) | relative viability (Bemcentinib; 0.04 µM) | relative viability (Bemcentinib; 0.1265 µM) | relative viability (Bemcentinib; 0.4 µM) | relative viability (Bemcentinib; 1.265 µM) | relative viability (Bemcentinib; 4 µM) | relative viability (Axitinib + Crizotinib; first compound 0.005 µM) | relative viability (Axitinib + Crizotinib; first compound 0.01581 µM) | relative viability (Axitinib + Crizotinib; first compound 0.05 µM) | relative viability (Axitinib + Crizotinib; first compound 0.1581 µM) | relative viability (Axitinib + Crizotinib; first compound 0.5 µM)
1 | NCI-H2347 | 0.954 | 1.03 | 1.07 | 0.744 | 1.03 | 0.983 | 0.959 | 1.09 | 1.06 | 0.951 | 0.953 | 1.17 | 1.06 | 0.956 | 1.04 | 0.644 | 1.04 | 0.739 | 0.743 | 0.85
2 | NCI-H2405 | 0.733 | 0.962 | 0.904 | 0.876 | 0.921 | 1 | 1.04 | 1.14 | 0.973 | 0.95 | 0.944 | 1.03 | 1.01 | 1 | 1.08 | 0.822 | 0.972 | 0.831 | 0.754 | 0.852
3 | NCI-H3122 | 0.982 | 0.999 | 0.965 | 0.745 | 1.02 | 0.973 | 0.985 | 1.02 | 1.02 | 1.11 |  | 1.06 | 0.977 | 1.06 | 1.06 | 0.205 | 0.276 | 0.274 | 0.314 | 0.267
4 | PC-3 [JPC-3] | 0.73 | 1.03 | 0.934 | 0.949 | 0.932 | 1.08 |  | 1.1 | 1.03 | 1.2 | 0.978 | 1.06 | 1.12 | 1.05 | 1.06 | 1.04 |  | 0.943 | 0.95 | 1.11
5 | PC-14 | 0.866 | 1.02 | 0.949 | 0.625 | 0.842 | 1.05 | 0.808 | 1.09 | 0.951 | 1.13 | 1.02 | 1.15 | 1.1 | 1.02 | 1.02 | 0.954 | 0.959 | 0.849 | 0.937 | 0.984
6 | RERF-LC-KJ | 0.873 | 0.935 | 0.858 | 0.81 | 0.795 | 1.07 | 0.991 | 1.01 | 0.984 | 1.04 | 1.07 | 1.04 | 1.11 | 1.07 | 1.06 | 0.801 | 0.856 | 0.862 | 0.771 | 0.823
7 | SK-LU-1 | 1.08 | 1.16 | 1.21 | 0.805 | 1.21 | 1.06 | 1.12 | 0.946 | 1.04 | 1.15 | 1.04 | 1.19 | 1.13 | 1.08 | 1.12 | 0.999 | 1.12 | 1.11 | 1.02 | 1.1
8 | SK-MES-1 | 0.893 | 0.927 | 0.901 | 0.726 | 0.815 | 1.03 | 0.998 | 1.01 | 0.976 | 1.06 | 1.03 | 1.09 | 1.07 | 1.11 | 1.11 | 1.06 | 0.974 | 1.07 | 1.02 | 1.11
9 | SW 1573 | 1.04 | 1.01 | 1.09 | 0.787 | 0.981 | 0.982 | 1 | 1.09 | 0.867 | 1.08 | 0.912 | 1.06 | 1.1 | 0.921 | 0.968 | 0.745 | 0.844 | 0.905 | 0.917 | 0.913
10 | UMC-11 | 0.965 | 0.949 | 1.04 | 0.907 | 1.23 | 1.03 | 0.943 | 0.956 | 0.935 | 0.899 | 0.982 | 1.13 | 1.08 | 0.871 | 0.995 | 0.556 | 0.59 | 0.59 | 0.584 | 0.482
